Laboratory results as given in ChEMBL document CHEMBL1201862, “PubChem BioAssay data set” (2004).
The source made the active and inactive calls.

Key:
[1] = molecular target: T1, Replicative DNA helicase DnaB (Mycobacterium tuberculosis, UniProt P9WMR3); experiment: DnaB intein splicing inhibitors, dose response, biochemical, cell-free fluorescence (AID 449749); format: functional
T1 sequence (P9WMR3 whole entry): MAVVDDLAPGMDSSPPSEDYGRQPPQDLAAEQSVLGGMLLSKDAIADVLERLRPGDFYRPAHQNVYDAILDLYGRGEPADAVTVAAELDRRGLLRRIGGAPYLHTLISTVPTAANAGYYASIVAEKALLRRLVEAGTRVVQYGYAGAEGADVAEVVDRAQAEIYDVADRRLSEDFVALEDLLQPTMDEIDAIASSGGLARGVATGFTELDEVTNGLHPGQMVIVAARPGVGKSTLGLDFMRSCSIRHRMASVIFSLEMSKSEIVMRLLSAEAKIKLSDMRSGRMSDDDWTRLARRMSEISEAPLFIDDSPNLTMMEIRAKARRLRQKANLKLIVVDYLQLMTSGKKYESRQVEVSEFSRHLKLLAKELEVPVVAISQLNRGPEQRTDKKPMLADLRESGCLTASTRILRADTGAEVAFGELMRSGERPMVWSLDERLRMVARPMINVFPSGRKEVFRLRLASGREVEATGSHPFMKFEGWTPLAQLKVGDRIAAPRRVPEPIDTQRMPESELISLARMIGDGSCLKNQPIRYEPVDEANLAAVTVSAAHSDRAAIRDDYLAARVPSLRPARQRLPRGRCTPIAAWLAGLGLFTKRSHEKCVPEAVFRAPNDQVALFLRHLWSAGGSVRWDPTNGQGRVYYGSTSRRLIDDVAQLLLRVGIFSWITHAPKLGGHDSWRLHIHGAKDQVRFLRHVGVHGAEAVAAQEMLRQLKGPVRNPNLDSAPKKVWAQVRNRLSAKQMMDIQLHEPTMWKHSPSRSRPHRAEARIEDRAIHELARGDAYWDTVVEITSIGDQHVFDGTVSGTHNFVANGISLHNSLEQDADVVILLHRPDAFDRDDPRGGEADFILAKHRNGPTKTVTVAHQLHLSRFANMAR

[2] = molecular target: Nucleotide-binding oligomerization domain-containing protein 2 (Homo sapiens, UniProt Q9HC29); experiment: inhibition of NOD2-driven NF-kB reporter – cell-based, luminescence, uHTS, HEK293 (AID 1566); format: functional
Sequence of Nucleotide-binding oligomerization domain-containing protein 2 (Q9HC29 whole entry, the tested form may be a part): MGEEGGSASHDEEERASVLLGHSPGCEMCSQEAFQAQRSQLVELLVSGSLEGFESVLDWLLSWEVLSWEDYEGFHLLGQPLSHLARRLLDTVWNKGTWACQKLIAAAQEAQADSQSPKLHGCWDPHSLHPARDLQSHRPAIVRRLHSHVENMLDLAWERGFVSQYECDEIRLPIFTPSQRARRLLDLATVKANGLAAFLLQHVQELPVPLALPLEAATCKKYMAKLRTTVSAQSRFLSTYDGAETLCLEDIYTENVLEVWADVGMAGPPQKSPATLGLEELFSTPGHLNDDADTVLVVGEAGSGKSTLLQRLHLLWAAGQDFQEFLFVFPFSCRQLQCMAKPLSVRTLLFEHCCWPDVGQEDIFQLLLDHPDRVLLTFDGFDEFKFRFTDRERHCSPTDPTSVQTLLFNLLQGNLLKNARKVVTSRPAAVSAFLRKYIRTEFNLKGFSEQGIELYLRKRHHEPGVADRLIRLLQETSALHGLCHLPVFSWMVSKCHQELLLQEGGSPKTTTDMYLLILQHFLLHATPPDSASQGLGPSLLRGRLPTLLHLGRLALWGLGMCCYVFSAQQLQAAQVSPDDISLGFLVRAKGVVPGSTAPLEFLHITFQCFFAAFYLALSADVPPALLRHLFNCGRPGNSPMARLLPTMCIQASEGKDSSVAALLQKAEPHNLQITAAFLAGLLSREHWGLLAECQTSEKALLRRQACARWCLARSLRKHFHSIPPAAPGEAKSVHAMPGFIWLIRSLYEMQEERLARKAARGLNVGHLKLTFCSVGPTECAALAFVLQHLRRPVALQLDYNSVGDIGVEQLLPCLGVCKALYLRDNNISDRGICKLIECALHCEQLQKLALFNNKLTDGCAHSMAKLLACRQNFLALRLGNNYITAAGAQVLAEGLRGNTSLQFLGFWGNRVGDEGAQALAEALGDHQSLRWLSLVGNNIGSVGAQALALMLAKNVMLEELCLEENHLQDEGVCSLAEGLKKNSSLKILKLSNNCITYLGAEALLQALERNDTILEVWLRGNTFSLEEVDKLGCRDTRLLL

HEK293 [3] = experiment: NOD2 signaling inhibitors in MDP-stimulated cells, cell-based, uHTS, luminescence (AID 2001); format: functional; conditions: Homo sapiens
HEK293 [4] = experiment: inhibition of NOD1-driven NF-kB reporter – cell-based, luminescence, uHTS, primary screen (AID 1578); format: functional; conditions: Homo sapiens
HEK293 [5] = experiment: cells; format: functional, cell-based; conditions: Homo sapiens
Protein RecA = molecular target: T2, Protein RecA (Mycobacterium tuberculosis, UniProt P9WHJ3); experiment: Fluorescence Cell-Free Homogeneous Dose Retest to Identify Inhibitors of RecA-Intein Splicing Activity. [Related pubchem assays (depositor defined):AID2097, AID2223, AID489010, AID492950]; format: functional
T2 sequence (P9WHJ3 whole entry): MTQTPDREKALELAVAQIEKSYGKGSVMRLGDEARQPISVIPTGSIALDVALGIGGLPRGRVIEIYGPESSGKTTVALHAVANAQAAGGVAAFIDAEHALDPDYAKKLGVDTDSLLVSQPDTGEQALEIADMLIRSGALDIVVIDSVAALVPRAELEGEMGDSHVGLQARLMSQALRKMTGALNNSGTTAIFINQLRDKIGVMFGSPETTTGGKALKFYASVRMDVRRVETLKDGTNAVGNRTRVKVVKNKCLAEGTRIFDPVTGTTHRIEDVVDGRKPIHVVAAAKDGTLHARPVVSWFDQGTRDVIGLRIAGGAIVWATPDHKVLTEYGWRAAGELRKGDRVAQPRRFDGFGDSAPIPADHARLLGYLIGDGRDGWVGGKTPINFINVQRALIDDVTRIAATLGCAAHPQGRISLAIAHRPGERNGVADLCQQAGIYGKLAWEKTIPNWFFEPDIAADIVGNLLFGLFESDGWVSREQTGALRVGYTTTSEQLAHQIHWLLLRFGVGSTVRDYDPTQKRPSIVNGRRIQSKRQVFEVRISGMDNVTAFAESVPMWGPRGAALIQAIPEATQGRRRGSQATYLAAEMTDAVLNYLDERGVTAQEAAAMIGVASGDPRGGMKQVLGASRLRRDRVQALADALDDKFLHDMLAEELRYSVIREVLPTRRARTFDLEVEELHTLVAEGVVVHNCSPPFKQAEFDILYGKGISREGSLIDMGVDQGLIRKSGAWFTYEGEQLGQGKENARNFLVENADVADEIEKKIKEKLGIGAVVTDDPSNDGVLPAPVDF

HEK293 [6] = experiment: cells; format: functional, cell-based; conditions: Homo sapiens; remark: listed apart in the source
[7] = microbe, parasite or virus in culture; format: functional; conditions: Mycobacterium tuberculosis
HEK293 [8] = experiment: cells; format: functional, cell-based; conditions: Homo sapiens; remark: listed apart in the source
Estrogen receptor = molecular target: T3, Estrogen receptor (Homo sapiens, UniProt P03372);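 further: potency for inhibiting coactivator peptide recruitment to the receptor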
T3 sequence (P03372 whole entry): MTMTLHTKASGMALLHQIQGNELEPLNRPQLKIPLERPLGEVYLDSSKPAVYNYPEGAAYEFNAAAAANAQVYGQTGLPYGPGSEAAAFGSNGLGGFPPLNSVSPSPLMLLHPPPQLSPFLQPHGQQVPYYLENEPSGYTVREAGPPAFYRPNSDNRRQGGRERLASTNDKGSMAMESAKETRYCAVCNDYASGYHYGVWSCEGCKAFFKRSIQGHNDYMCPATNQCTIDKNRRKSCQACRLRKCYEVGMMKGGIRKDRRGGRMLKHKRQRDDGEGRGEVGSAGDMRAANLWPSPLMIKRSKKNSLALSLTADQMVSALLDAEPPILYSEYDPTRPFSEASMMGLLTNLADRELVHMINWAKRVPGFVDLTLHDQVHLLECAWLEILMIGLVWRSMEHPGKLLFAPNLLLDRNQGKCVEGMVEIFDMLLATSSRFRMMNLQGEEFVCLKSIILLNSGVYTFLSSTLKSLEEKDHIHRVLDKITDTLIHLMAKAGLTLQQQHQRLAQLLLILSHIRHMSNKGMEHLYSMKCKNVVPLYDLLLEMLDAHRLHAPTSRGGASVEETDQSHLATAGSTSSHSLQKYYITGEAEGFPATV

[9] = molecular target: E3 ubiquitin-protein ligase XIAP (Homo sapiens, UniProt P98170); experiment: Counter Screen using XIAP-Bir3 for Chemical Antagonists of Bir1/2 domains of IAP-family anti-apoptotic proteins. [Related pubchem assays (depositor defined):AID1018, AID1449, AID1514, AID1638, AID1749, AID1750, AID488957, AID488963]
[10] = molecular target: DNA dC->dU-editing enzyme APOBEC-3A (Homo sapiens, UniProt P31941); experiment: A3A deaminase inhibition for selectivity – biochemical, dose response (AID 504722); format: functional
Sequence of DNA dC->dU-editing enzyme APOBEC-3A (P31941 whole entry): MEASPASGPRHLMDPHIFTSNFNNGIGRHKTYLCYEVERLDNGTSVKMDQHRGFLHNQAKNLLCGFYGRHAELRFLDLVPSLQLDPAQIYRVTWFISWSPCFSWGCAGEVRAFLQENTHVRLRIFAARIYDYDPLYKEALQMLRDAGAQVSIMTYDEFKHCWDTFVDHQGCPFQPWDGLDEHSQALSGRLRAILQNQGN

[11] = molecular target: DNA dC->dU-editing enzyme APOBEC-3G (Homo sapiens, UniProt Q9HC16); experiment: Dose Response confirmation of small molecule APOBEC3G DNA Deaminase Inhibitors via a fluorescence-based single-stranded DNA deaminase assay. [Related pubchem assays (depositor defined):AID493012, AID493028]; format: functional
Sequence of DNA dC->dU-editing enzyme APOBEC-3G (Q9HC16 whole entry): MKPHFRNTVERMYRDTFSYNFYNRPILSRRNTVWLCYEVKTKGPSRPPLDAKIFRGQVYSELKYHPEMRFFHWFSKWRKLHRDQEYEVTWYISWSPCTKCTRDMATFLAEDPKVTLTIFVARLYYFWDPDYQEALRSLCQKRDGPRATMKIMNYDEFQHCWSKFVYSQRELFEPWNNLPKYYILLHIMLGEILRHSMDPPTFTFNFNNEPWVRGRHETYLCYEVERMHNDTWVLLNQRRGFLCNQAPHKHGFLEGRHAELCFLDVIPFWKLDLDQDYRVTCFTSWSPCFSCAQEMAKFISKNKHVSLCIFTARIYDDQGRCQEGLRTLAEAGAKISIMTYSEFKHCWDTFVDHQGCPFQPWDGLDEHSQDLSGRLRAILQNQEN

[12] = molecular target: T4, Voltage-gated N-type calcium channel alpha-1B subunit/Amyloid beta A4 precursor protein-binding family A member 1 (Homo sapiens, UniProt Q00975+Q02410); format: protein assay
T4 sequence (Q00975 whole entry): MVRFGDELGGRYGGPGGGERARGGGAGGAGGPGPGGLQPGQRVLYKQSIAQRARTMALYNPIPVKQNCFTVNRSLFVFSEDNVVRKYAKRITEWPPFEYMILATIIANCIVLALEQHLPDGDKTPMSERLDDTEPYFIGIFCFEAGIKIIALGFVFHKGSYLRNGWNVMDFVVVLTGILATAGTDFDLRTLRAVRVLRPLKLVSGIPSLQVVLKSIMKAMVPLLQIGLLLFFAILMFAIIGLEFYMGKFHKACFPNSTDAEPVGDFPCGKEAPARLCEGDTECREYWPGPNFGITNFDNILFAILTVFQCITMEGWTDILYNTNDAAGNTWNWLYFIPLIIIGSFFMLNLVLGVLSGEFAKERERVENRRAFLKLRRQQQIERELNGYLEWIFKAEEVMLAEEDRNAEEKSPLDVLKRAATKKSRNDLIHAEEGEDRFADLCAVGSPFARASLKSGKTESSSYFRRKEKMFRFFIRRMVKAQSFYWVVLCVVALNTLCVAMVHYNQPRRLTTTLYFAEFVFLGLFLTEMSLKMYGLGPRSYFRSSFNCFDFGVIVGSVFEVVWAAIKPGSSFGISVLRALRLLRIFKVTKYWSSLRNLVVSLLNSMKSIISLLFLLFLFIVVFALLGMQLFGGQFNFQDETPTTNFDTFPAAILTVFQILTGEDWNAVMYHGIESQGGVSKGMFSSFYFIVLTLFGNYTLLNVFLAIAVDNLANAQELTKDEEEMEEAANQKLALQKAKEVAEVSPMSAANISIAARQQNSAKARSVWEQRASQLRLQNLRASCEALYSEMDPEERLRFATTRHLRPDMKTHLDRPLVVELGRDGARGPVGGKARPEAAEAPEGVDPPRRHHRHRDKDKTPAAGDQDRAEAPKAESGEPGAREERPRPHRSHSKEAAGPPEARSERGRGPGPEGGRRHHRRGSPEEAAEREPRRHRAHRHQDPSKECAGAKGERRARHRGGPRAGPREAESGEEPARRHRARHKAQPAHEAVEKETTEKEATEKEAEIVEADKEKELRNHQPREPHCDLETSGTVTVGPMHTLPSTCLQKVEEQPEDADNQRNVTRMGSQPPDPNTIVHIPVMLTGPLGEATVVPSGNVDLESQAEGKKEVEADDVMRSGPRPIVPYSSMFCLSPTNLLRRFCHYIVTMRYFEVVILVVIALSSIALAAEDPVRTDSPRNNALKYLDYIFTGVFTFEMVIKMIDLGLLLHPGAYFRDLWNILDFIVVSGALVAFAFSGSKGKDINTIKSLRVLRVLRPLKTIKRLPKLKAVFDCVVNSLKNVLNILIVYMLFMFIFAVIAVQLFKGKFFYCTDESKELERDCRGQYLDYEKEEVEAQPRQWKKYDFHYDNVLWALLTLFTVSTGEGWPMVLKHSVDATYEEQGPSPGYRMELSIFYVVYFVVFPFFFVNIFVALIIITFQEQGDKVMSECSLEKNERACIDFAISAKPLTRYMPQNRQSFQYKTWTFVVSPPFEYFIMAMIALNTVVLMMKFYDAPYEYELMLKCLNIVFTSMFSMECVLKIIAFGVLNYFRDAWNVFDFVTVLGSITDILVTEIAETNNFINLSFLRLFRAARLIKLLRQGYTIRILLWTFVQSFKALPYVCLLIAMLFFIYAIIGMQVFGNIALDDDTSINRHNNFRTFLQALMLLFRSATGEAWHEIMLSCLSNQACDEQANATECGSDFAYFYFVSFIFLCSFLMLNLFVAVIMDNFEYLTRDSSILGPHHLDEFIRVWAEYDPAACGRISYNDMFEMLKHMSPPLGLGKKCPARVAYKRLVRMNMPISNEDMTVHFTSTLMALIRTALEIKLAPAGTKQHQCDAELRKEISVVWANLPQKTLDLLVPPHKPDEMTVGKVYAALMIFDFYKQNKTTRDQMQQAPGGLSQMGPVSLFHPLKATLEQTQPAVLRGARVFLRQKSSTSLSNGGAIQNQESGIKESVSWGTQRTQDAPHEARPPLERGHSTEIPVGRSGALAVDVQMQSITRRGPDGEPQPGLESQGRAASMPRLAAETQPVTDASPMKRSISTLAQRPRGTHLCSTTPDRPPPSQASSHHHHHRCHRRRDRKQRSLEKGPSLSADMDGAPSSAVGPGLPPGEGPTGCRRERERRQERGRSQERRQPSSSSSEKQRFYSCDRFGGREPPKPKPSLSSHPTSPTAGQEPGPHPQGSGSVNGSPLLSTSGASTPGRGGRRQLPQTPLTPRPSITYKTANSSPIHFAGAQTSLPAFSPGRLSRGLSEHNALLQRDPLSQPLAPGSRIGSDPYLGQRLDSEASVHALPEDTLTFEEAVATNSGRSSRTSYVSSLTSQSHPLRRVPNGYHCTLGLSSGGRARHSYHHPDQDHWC
T4 sequence (Q02410 whole entry): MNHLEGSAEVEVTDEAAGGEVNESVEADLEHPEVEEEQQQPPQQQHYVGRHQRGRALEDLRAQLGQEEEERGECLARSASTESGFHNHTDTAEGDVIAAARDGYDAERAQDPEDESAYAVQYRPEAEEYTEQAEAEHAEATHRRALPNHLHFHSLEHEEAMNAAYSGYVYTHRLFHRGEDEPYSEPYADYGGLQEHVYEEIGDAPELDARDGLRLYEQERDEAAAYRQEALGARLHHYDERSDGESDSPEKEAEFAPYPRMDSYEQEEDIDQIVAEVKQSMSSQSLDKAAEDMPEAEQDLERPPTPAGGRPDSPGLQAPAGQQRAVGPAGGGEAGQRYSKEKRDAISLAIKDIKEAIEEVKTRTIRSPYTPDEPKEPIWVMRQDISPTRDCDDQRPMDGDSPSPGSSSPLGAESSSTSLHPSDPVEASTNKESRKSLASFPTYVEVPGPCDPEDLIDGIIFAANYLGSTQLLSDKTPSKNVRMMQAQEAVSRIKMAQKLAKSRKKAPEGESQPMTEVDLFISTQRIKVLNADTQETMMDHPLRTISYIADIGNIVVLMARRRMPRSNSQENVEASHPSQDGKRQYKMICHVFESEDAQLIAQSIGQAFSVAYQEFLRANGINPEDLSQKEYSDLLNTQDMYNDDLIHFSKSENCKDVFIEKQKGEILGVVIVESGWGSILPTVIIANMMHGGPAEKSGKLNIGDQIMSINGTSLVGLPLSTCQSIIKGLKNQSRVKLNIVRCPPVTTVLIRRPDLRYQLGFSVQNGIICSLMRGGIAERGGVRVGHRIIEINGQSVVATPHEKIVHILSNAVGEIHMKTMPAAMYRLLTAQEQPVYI

[13] = molecular target: T5, Small ubiquitin-related modifier 1 (Homo sapiens, UniProt P63165); experiment: SUMO1 protein-protein binding blockers, potency – biochemical, FRET, dose response (AID 624383); format: functional; conditions: read-out: IC50_Mean
T5 sequence (P63165 whole entry): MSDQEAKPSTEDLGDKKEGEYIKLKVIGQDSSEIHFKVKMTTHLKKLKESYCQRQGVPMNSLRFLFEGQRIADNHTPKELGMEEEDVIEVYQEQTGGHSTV

[14] = molecular target: T5, Small ubiquitin-related modifier 1; experiment: SUMO1 protein interaction blockers, potency – biochemical, fluorescence polarization, uHTS hits, dose response (AID 624382); format: functional; conditions: read-out: IC50_Mean
[15] = molecular target: T4, Voltage-gated N-type calcium channel alpha-1B subunit/Amyloid beta A4 precursor protein-binding family A member 1; format: protein assay; remark: listed apart in the source
[16] = molecular target: T6, Microphthalmia-associated transcription factor (Homo sapiens, UniProt O75030); experiment: reducers of TRPM1 reporter luminescence, concentration series – cell-based, SK-MEL-5, cherry-picked, set 3, MITF inhibitor project, dose response (AID 493073); format: functional;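 further: SK-MEL-5 melanoma cells with luciferase driven by the MITF target TRPM1 promoter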
T6 sequence (O75030 whole entry): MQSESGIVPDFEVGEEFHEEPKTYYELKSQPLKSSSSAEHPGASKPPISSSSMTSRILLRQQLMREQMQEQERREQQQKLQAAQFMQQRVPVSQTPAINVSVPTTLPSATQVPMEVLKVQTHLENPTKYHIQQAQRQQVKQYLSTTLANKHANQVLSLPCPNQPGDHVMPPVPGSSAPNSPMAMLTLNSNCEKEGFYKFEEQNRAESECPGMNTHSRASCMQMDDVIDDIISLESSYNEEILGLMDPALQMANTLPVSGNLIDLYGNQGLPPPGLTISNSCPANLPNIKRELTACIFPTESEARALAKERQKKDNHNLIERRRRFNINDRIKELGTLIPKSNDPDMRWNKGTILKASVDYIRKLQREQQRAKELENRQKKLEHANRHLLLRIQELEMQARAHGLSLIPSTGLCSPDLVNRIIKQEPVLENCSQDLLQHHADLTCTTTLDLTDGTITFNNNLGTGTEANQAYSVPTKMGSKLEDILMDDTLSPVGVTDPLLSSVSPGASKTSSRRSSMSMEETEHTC

[17] = Trypanosoma cruzi growth suppression in host cells – NIH3T3 host cells, beta-gal luminescence, confirmation (AID 2044); format: functional, cell-based;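 further: intracellular parasites grown in NIH/3T3 mouse fibroblasts as host cells; luminescent beta-galactosidase reporter signal from transgenic T. cruzi replicating inside host cells; inhibitors lower the luminescence signal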
[18] = NIH3T3 cell viability loss – ATP luminescence, mouse fibroblasts, counter-screen, dose response (AID 2010); format: functional, cell-based;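 further: cells exposed to compound for about 90 hours before reading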
CAAX prenyl protease 2 = molecular target: T7, CAAX prenyl protease 2 (Saccharomyces cerevisiae S288c, UniProt Q03530); format: biochemical
T7 sequence (Q03530 whole entry): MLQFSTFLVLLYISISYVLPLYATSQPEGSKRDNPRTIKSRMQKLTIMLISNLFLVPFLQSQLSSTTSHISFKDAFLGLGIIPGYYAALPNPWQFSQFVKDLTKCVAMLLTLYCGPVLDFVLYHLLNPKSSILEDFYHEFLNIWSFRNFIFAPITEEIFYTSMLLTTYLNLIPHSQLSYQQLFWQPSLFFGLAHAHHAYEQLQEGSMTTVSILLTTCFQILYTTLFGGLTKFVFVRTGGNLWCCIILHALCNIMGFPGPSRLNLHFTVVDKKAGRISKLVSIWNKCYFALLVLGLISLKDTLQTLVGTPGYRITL

Fatty acid synthase = Fatty acid synthase (Homo sapiens, UniProt P49327); experiment: inhibition of human FAS-TE enzyme activity – biochemical, kinetic fluorescence intensity, dose response (AID 624326); format: functional;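 further: rate of fluorescence rise from hydrolysis of a fluorogenic O-methyl fluorescein ester substrate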
[19] = molecular target: T8, Rac GTPase-activating protein 1 (Homo sapiens, UniProt Q9H0H5); experiment: blockers of MgcRacGAP-driven Rac1 GTP hydrolysis – biochemical, ADP Hunter fluorescence, primary and confirmatory, confirmation (AID 624330); format: functional
T8 sequence (Q9H0H5 whole entry): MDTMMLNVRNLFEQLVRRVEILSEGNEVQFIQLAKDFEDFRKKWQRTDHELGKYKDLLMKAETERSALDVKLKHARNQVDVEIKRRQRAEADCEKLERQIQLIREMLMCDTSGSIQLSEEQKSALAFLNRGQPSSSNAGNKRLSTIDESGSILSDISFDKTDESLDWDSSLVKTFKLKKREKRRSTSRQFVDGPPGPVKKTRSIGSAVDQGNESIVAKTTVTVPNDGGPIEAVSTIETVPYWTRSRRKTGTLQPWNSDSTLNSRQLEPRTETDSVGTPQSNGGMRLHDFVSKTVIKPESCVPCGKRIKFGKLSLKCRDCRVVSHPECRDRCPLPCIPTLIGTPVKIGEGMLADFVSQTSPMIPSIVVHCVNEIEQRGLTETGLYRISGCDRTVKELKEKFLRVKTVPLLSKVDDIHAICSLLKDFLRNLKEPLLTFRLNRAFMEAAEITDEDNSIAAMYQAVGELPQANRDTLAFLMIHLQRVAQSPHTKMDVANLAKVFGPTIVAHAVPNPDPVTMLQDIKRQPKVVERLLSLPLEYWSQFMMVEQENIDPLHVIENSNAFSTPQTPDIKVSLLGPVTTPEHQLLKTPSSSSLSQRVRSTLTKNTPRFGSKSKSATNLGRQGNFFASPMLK

Large T antigen = Large T antigen (Simian virus 40, UniProt P03070); format: functional, Betapolyomavirus macacae;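 further: Confirmatory-stage PubChem screen for compounds that inhibit SV40 T antigen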

COc1ccc(-n2nc3c(c2NC(=O)CCl)CSC3)cc1
AC50 [1]: 13.6 µM (active) | EC50 [2]: > 20 µM (inactive) | IC50 (HEK293 [3]): 14.8 µM (inactive) | EC50 (HEK293 [4]): 13.1 µM (active) | IC50 (HEK293 [5]): > 20 µM (inactive) | EC50 (Protein RecA): > 380 µM (inconclusive) | IC50 (HEK293 [6]): 7.89 µM (active) | CC50 [7]: 18 µM (active) | IC50 (HEK293 [8]): > 20 µM (inactive)

O=C(NCc1ccc(Cl)cc1)c1cc(-c2cccs2)on1
IC50 (Estrogen receptor): > 50 µM (not active) | IC50 [9]: > 20 µM (inactive)

S=c1nc(-c2ccccc2)n(-c2ccccc2)[nH]1
IC50 [10]: > 100 µM (inactive) | IC50 [11]: 7.02 µM (active)

CC(OC(=O)c1ccc(NC(=O)CC#N)cc1)C(=O)Nc1ccc(Oc2ccccc2)cc1 (configuration not stated)
IC50 [12]: > 50 µM (inactive) | IC50 [13]: 17.1 µM (active) | IC50 [14]: > 66.6 µM (inactive) | IC50 [15]: 8.36 µM (active)

C[C@H]1CCC[C@]2(C)C[C@H]3OC(=O)C(CN4CCCCCC4)[C@H]3C=C12 (some centres not stated)
AC50 [16]: 13.9 µM (active)

CCOC(=O)c1nnn(-c2ccc([N+](=O)[O-])cc2[N+](=O)[O-])c1C
EC50 [17]: 0.647 µM (active) | EC50 [18]: > 60 µM (not active) | AC50 [16]: 8.85 µM (active)

O=S(=O)(c1ccc(-c2csc(Nc3ccc(F)cc3)n2)cc1)N1CCCC1
AC50 (CAAX prenyl protease 2): 19.8 µM (active) | IC50 (Fatty acid synthase): 15.2 µM (active)

Cc1cc(-c2nnc(S)n2/N=C/c2cccs2)[nH]n1
IC50 [19]: 87.8 µM (active) | IC50 [10]: > 100 µM (inactive) | IC50 (Large T antigen): 55 µM (active) | IC50 [11]: 2.9 µM (active)
